From patent publication US20170105981A1, “METHODS FOR STABILIZING HYPOXIA INDUCIBLE FACTOR-2 ALPHA AS A METHOD FOR TREATING CANCER” (The Ohio State Innovation Foundation, priority 2011, published 2017)

What was measured:
[1] = system: B16F10 murine melanoma cells; test: Murine melanoma tumor model (B16F10 in C57BL/6 mice); type: in vivo; settings: for tumor growth: FIG. 14A
Procedure: Mice were injected with 1×10^5 B16F10 murine melanoma cells murine subcutaneously on the left flank. Once tumors become palpable (approximately 5 days), mice were randomly allocated to receive treatment with either: 20% polyethylene glycol (PEG) in 5% […] (vehicle control for the disclosed HIF-2α stabilizer) and PBS (vehicle control for GM-CSF), 20% PEG and GM-CSF (100 ng per mouse in a 50 μL volume), the disclosed HIF-2α stabilizer (17.5 mg/kg in a 100 μL volume) and PBS, or the disclosed HIF-2α stabilizer and GM-CSF (same doses). The PBS and GM-CSF were administered intratumorally, while the 20% PEG and the disclosed HIF-2α stabilizer were administered intraperitoneally. Mice were treated 3 times per week until tumors reached a size of 20 mm in any dimension (approximately 2.5 weeks), at which point mice were euthanized, in accordance with institutional policy. Tumor diameters were measured 3 times per week with calipers, and tumor volumes were calculated as follows: Tumor volume=0.5×[(large diameter)×(small diameter)^2].
6-8-week-old C57BL/6 mice were injected with 1×10^5 B16F10 murine melanoma cells murine subcutaneously on the left flank. Once tumors become palpable (approximately 5 days), mice were randomly allocated to receive treatment with either: 20% PEG-400 in 5% sucrose (vehicle for disclosed HIF-2α stabilizer) and PBS (vehicle for GM-CSF), 20% PEG-400 and GM-CSF (100 ng per mouse in a 50 μL volume), disclosed HIF-2α stabilizer (17.5 mg/kg mouse weight in a 100 μL volume) and PBS, or the disclosed HIF-2α stabilizer and GM-CSF (same concentrations). The disclosed HIF-2α stabilizer (or the vehicle control) was administered intraperitoneally, while GM-CSF (or the vehicle control) was administered intratumorally. Mice were treated […] 3 times per week until tumors reached a size of 20 mm in any dimension (approximately 2.5 weeks), at which point mice were be euthanized, in accordance with institutional policy. Tumor diameters were measured 3 times per week with calipers, and tumor volumes will be calculated as follows: Tumor volume=0.5×[(large diameter)×(small diameter)^2]. For experiments analyzing the effect of neutralizing sVEGFR-1 in combination with disclosed HIF-2α stabilizer treatment, mice were treated intraperitoneally 3×/week with either disclosed HIF-2α stabilizer or vehicle control, and intratumorally with either 4 μg anti-VEGFR-1 neutralizing antibody (R&D Systems) or 4 μg polyclonal goat IgG isotype control (Santa Cruz Biotechnology) in a 50 μL volume. All protocols were approved by the Ohio State University Animal Care and Use Committee, and mice were treated in accordance with institutional guidelines for animal care.
The ANOVA test was used to compare independent measurements between multiple treatment groups. The data was log-transformed to normalize the variance across groups. P-values were adjusted using the Holm's procedure to conserve the type I error at 0.05 due to the multiple comparisons. For tumor growth data, changes in tumor volume over time were assessed via a longitudinal model. Tumor values were log-transformed, and estimated slopes (changes in tumor volume over time) were calculated with 95% confidence intervals. Estimated differences in tumor volume were calculated by a random-effects regression of the longitudinal data. For all analyses, p≦0.05 was considered statistically significant.
6-8-week-old C57BL/6 mice or SCID mice were injected with 1×10^5 B16F10 murine melanoma cells or 1×10^6 A375 human melanoma cells, respectively, subcutaneously on the left flank. […]

VEGF = VEGF production by human peripheral blood monocytes (ELISA, real-time PCR); type: cell-based; settings: monocytes with GM-CSF and compound vs GM-CSF alone; p=0.556; FIG. 11C
Procedure: Human peripheral blood mononuclear cells (PBMCs) were isolated from fresh peripheral blood leukocyte source packs (American Red Cross, Columbus Ohio) by density gradient centrifugation over Lymphocyte Separation Medium (Cellgro). Monocytes were purified from total PBMCs by layering over FBS. Monocytes were cultured in endotoxin-free RPMI-1640 supplemented with 1% fetal bovine serum (FBS), 0.1% human serum albumin (HSA), and 10 μg/mL of the endotoxin inhibitor polymyxin B. In some experiments, freshly isolated monocytes were differentiated into macrophages by three-day culture in media containing 10% FBS, 1% PSA (penicillin G sodium, streptomycin sulfate, and amphotericin B), and 20 ng/mL M-CSF. Macrophages were serum-starved for 2 hours prior to stimulation. Monocytes or monocyte-derived macrophages were treated for 24 hours with 10 ng/mL GM-CSF, 10 μM disclosed HIF-2α stabilizer, or an equivalent volume of the vehicle controls (PBS or DMSO, respectively). Cell-free culture supematants were harvested and analyzed for VEGF or sVEGFR-1 by ELISA (R&D Systems).
Human monocytes were left untreated or were stimulated with 100 ng/mL GM-CSF at normoxia or at 0.5% O2. At various time-points, cells were harvested in Trizol reagent (Invitrogen) and RNA was extracted in chloroform and then purified using the RNeasy Minikit (Qiagen). In murine studies, organs harvested at the time of euthanasia were flash-frozen in liquid nitrogen, pulverized in liquid nitrogen, and then dissolved in Trizol. cDNA was generated from 1 μg of RNA using the Superscript First Strand Synthesis System (Invitrogen) and used for real-time PCR using previously described primers and SYBR Green PCR Master Mix (Applied Biosciences), according to the manufacturer's instructions. Data were analyzed according to the comparative threshold method and normalized against the β-actin internal control transcript. Results are semi-quantitative and represent the fold difference in transcript levels in a particular sample as compared with levels in untreated cells from the same donor. […]

[2] = system: tumor growth in HIF-2αflox/flox/LysMcre and LysMcre mice; test: Tumor growth in mice with myeloid-specific deletion of HIF-2α vs LysMcre control mice; type: in vivo; settings: FIG. 15
Text: HIF-2α^flox/flox mice (originally developed by Dr. Celeste Simon, University of Pennsylvania) and LysMcre recombinase mice (originally developed by Irmgard Foerster, University of Duesseldorf) (both purchased from The Jackson Laboratory, Bar Harbor, Me.) were crossed to generate mice homozygous for both LysMcre and the floxed HIF-2α allele. LysMcre recombinase mice, which express no floxed alleles, were used as controls. Deletion of HIF-2α in HIF-2α^flox/flox/LysMcre macrophages, but not the LysMcre control macrophages, was confirmed at the transcript level by real-time PCR.
The disclosed HIF-2α stabilizer is not targeted specifically to macrophages, and will stabilize HIF-2α in all tissues, not only the tumor-associated macrophages. In order to determine the role of macrophages in the anti-tumor response to the disclosed HIF-2α stabilizer, mice with a myeloid-specific deletion of HIF-2α (HIF-2α^flox/flox/LysMcre mice) were utilized.

SMILES: O=C(O)CNC(=O)c1ncc(-c2cccc(F)c2)cc1O [disclosed HIF-2α stabilizer, {[5-(3-Fluorophenyl)-3-hydroxypyridine-2-carbonyl]amino} acetic acid]
- tumor growth / tumor volume ([1]; B16F10 melanoma, stabilizer 17 mg/kg I.P., GM-CSF I.T., vs PBS control, FIG. 3): reduces tumor growth
- increase in median survival (time to a tumor diameter of 20 mm) ([1]; B16F10 melanoma-bearing mice, stabilizer alone, p=0.023, FIG. 12B): 3 days
- average tumor volumes vs vehicle controls ([1]; day 16 of treatment, 3×/week, GM-CSF 100 ng/mouse intratumoral, stabilizer 17.5 mg/kg intraperitoneal, each p<0.001): significantly smaller
- tumor growth ([1]; mice also treated with anti-sVEGFR-1 neutralizing antibody, p=0.245): no effect
- tumor growth ([1]; mice treated with isotype control antibody, p<0.001): decreased tumor growth
- VEGF transcript levels (VEGF): no difference
- tumor growth ([2]; LysMcre control mice): inhibited tumor growth
- tumor growth ([2]; mice with HIF-2α-deficient macrophages, magnitude much less than in control mice): reduced tumor growth
